The source of these data is ChEMBL document CHEMBL2311512, “Addition of thiols to o-quinone methide: new 2-hydroxy-3-phenylsulfanylmethyl[1,4]naphthoquinones and their activity against the human malaria parasite Plasmodium falciparum (3D7)” (Eur J Med Chem, 2013).

SMILES strings stand for the structures.

The test deals with Plasmodium falciparum. Briefly: Antiplasmodial activity against Plasmodium falciparum 3D7 infected in RBC by flow cytometry analysis. It is filed as functional, organism-based. (In general: In flow cytometry, cells or beads pass a laser one at a time.)
Broadly, the IC50 is the concentration that inhibits the measured activity by half. `CSc1ccc(SCC2=C(O)C(=O)c3ccccc3C2=O)cc1` registered an IC50 of 22.3 µM. In other words, the double-digit micromolar range. With `O=C1C(O)=C(CSc2ccccc2)C(=O)c2ccccc21` the figure was 27.1 µM; with `CCCSCC1=C(O)C(=O)c2ccccc2C1=O`, 31.8 µM; with `Cc1cccc(SCC2=C(O)C(=O)c3ccccc3C2=O)c1`, 5.4 µM. With `Cc1ccc(SCC2=C(O)C(=O)c3ccccc3C2=O)cc1` the figure was 6.8 µM; with `O=C1C(O)=C(CSc2ccc(F)cc2)C(=O)c2ccccc21`, 7 µM. With `COc1ccc(SCC2=C(O)C(=O)c3ccccc3C2=O)cc1` the figure was 9.3 µM; with `Cc1ccccc1SCC1=C(O)C(=O)c2ccccc2C1=O`, 9.7 µM.

The compound `O=C1C(O)=C(CSc2ccc([N+](=O)[O-])cc2)C(=O)c2ccccc21` gave an IC50 of 14.4 µM. Compound `O=C1C(O)=C(CSc2ccc3ccccc3c2)C(=O)c2ccccc21` yielded an IC50 of 14.5 µM. Under `O=C1C(=O)c2ccccc2C(O)=C1CSc1ccc(Cl)cc1` stands 20 µM; under `CSc1ccc(SC(C2=C(O)C(=O)c3ccccc3C2=O)c2ccccc2)cc1` (racemic), 18.2 µM; under `O=C1C(O)=C(C(Sc2ccc3ccccc3c2)c2ccc([N+](=O)[O-])cc2)C(=O)c2ccccc21` (racemic), 19.9 µM. With `Cc1ccc(SC(C2=C(O)C(=O)c3ccccc3C2=O)c2ccc([N+](=O)[O-])cc2)cc1` (racemic) the figure was 27 µM; with `CCCSC(C1=C(O)C(=O)c2ccccc2C1=O)c1ccc([N+](=O)[O-])cc1` (racemic), 27.8 µM; with `Cc1cccc(SC(C2=C(O)C(=O)c3ccccc3C2=O)c2ccccc2)c1` (racemic), 34.2 µM. Under `Cc1ccccc1SC(C1=C(O)C(=O)c2ccccc2C1=O)c1ccc([N+](=O)[O-])cc1` (racemic) stands 6.6 µM. Regarding `O=C1C(O)=C(C(Sc2ccc(O)cc2)c2ccc([N+](=O)[O-])cc2)C(=O)c2ccccc21` (racemic), the half-inhibitory concentration (IC50) is 7.5 µM. `O=C1C(O)=C(C(Sc2ccc(Cl)cc2)c2ccc([N+](=O)[O-])cc2)C(=O)c2ccccc21` (racemic) came in with a concentration for half-maximal inhibition (IC50) of 7.5 µM.

`Cc1cccc(SC(C2=C(O)C(=O)c3ccccc3C2=O)c2ccc([N+](=O)[O-])cc2)c1` (racemic) displayed a half-inhibitory concentration (IC50) of 10.7 µM. The IC50 values of the last two compounds are within 1.5-fold of each other. With `CCCSC(C1=C(O)C(=O)c2ccccc2C1=O)c1ccccc1` (racemic) the figure was 13.8 µM. With `O=C1C(O)=C(C(Sc2ccc([N+](=O)[O-])cc2)c2ccccc2)C(=O)c2ccccc21` (racemic) the figure was 13.9 µM; with `O=C1C(O)=C(C(Sc2ccc(F)cc2)c2ccc([N+](=O)[O-])cc2)C(=O)c2ccccc21` (racemic), 14.3 µM.

The compound `O=C1C(O)=C(C(Sc2ccccc2)c2ccc([N+](=O)[O-])cc2)C(=O)c2ccccc21` (racemic) gave a half-maximal inhibitory concentration (IC50) of 16.8 µM. Under `Cc1ccccc1SC(C1=C(O)C(=O)c2ccccc2C1=O)c1ccccc1` (racemic) stands 17.6 µM. With `O=C1C(O)=C([C@H]2CC[C@H](c3ccc(Cl)cc3)CC2)C(=O)c2ccccc21` [ATOVAQUONE] the figure was 0.003 µM.
